Source: patent publication US6630316B1, “Method for measurement of lymphocyte function” (priority 1996, dated 2003)

How the values were obtained:
Type in all cases: cell-based
[1] = tested on: CD8 positive T lymphocytes
[2] = tested on: T lymphocytes separated by CD4, CD69, or CD3; assay: ATP response after PHA stimulation of T lymphocytes separated by CD4, CD69 or CD3; details: PHA (1%) for 24, 48, 72 or 96 hours; separation by CD3, CD4 or CD69
[3] = tested on: CD4 positive T lymphocytes; assay: ATP (luciferin:luciferase) response of PBMC separated using CD4 antibody and goat anti-mouse paramagnetic beads; details: PHA 1 ug/ml, 24 hours, CD4 separation, unstimulated 8768
[4] = tested on: T lymphocytes (CD4) in whole blood; assay: T cell response to mitogens in a whole blood sample (CD4 separation, ATP luminescence); details: whole blood diluted 1:5, incubated overnight at 37 C; PHA at 1%, IL-2 at 1000 U/ml; control 458,451

phytohemagglutinin [PHA] was tested, and the stimulation index [1] was over 10, the “relative light units from stimulated cells versus unstimulated cells” value [2] was “greater than those from the unstimulated cells” and the “Relative Light Units” value [3] was 38903 Relative Light Units. The “Relative Light Units” value [4] was 5,836,682 Relative Light Units.
